Results: article PMC3364022 (Journal of the American Chemical Society, 2011)
Where a SMILES comes first, the peptide text is derived from it. [ ]: non-standard residue; d: D form. β3hW = N[C@H](CC(=O)O)Cc1c[nH]c2ccccc12; β3hY = N[C@H](CC(=O)O)Cc1ccc(O)cc1; β3hR = N=C(N)NCCC[C@H](N)CC(=O)O; β3hF = N[C@H](CC(=O)O)Cc1ccccc1; β3hQ = NC(=O)CC[C@H](N)CC(=O)O; βAla = NCCC(=O)O

Biological target: Bcl-xL (Homo sapiens, UniProt Q07817)
Test: Competition fluorescence polarization
Format: binding
Conditions: competition FP Ki, relative to α-peptide 1

Bcl-xL, sequence (Q07817 whole entry): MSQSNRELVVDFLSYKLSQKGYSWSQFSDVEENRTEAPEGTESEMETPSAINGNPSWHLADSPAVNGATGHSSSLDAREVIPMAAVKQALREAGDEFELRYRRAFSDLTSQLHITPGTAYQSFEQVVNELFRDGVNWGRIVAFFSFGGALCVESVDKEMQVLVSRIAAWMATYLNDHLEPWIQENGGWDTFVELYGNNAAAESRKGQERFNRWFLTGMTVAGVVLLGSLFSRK

Affinity for Bcl-xL, fold weaker than observed for 1: 23 fold
Compound: CC[C@H](C)[C@H](NC(C)=O)C(=O)N[C@H](CC(=O)N[C@H](C(=O)N[C@@H](C)C(=O)N[C@@H](CCC(N)=O)CC(=O)N[C@@H](CCC(=O)O)C(=O)N[C@@H](CC(C)C)C(=O)N[C@@H](CCCNC(=N)N)CC(=O)N[C@@H](CCCNC(=N)N)C(=O)N[C@H](C(=O)NCCC(=O)N[C@@H](CC(=O)O)C(=O)N[C@@H](CCC(=O)O)C(=O)N[C@H](CC(=O)N[C@@H](CC(N)=O)C(=O)N[C@@H](C)C(=O)N[C@H](CC(=O)N[C@@H](Cc1ccc(O)cc1)C(N)=O)Cc1ccc(O)cc1)Cc1ccccc1)[C@@H](C)CC)[C@@H](C)CC)Cc1c[nH]c2ccccc12 [3c] (Ac-I[β3hW]IA[β3hQ]EL[β3hR]RI[βAla]DE[β3hF]NA[β3hY]Y-NH2)
